Measured values from patent US3995061A, “Pharmaceutical composition and method of using the same” (Chugai Seiyaku Kabushiki Kaisha, priority 1974, dated 1976).
“Also recorded” adds a separate entry of the source.

Tests used:
[1] = Toxicity by continuous administration for 30 days (body weight, deaths); type: in vivo, Wister strain male rats; conditions: rat, 50 mg/kg oral once a day
Protocol: Wister strain male rats weighing 150 ± 20 g were divided into groups of 10 members each, and each group was orally administered with 4-O-methylascochlorin as a suspension in 2% gum arabic aqueous solution in a predetermined dose once a day for 30 days, and the increase in body weight thereof was observed each day that the administration continued. As controls, ascochlorin (50 mg/kg/day) and ethyl-α-(p-chlorophenoxy) isobutylate (500 mg/kg/day) were used. The results are shown in the graph in FIG. 2.

Cholesterol in serum = assay: Serum cholesterol lowering activity in rats on high-fat feed, single oral dose; type: in vivo, Wister-Imamich strain male rats; conditions: rat, 75 mg/kg oral, 6 hours after administration
Source text: The cholesterol lowering activity of the ascochlorin derivatives of this invention was observed by the use of Wister-Imamich strain male rats weighing 230 ± 30 g which had been bred with the use of high-fat feed comprising 1000 g of powdery chow CLEA CE-2 (sold by NIHON CLEA KABUSHIKI KAISHA) admixed with 10 g of cholesterol, 95 g of hydrogenated coconut oil, 2 g of cholic acid, 150 g of milk casein and 671 g of sucrose.
The rats were divided into groups of five members each, and orally administered with a different ascochlorin derivative as a suspension in gum arabic aqueous solution in a dose of 75 mg/kg.body weight. The rats were kept from eating food, and 6 hours after the administration, the blood of each rat was sampled from its heart. The total amount of cholesterol in serum was determined by a modified Zurkowski method (Clinical Chemistry, 10, 451, 1964) with the use of a colorimeter for blood analysis (sold by KYOTO DAIICHI KAGAKU).

Lipid in liver and aorta = assay: Hypolipidemic activity: change of lipid level in organs and aorta abdominalis, 30 days, high-fat feed; type: in vivo, Wister strain rats; conditions: rat, 10.0 mg/kg oral
Protocol: Wister strain rats weighing 150 ± 20 g were divided into groups of 10 members each and bred with high-fat feed, the same as that used in Example 1. The rats were orally administered ascochlorin, 4-O-methylascochlorin or ethyl-α-(p-chlorophenoxy) isobutylate in a predetermined dose every morning for 30 days. Six hours after the last administration, liver and aorta of each rat were taken out and lipid level in the organs of each of the rats were determined. Lipid present in the liver and aorta was extracted with methanol-chloroform (1:1) by allowing it to stand overnight and the extract was assayed as to lipid level.

Acute toxicity, mouse = conditions: in vivo
Source text: (§1) Acute toxicity of the ascochlorin derivatives was observed by the use of Wister-Imamichi strain male rats weighing 230 ± 30 g and ddY strain male and female mice (5 weeks old) weighing 20 ±3 g which were divided into groups of 10 members each. Japanese native male rabbits weighing 2 kg ± 300 g which were divided into groups of five members each were also used. The test animals were orally or intraperitoneally administered with a different ascochlorin derivative as a suspension in 5% gum arabic aqueous solution, and the toxicity was compared with that of control in which ascochlorin was used.

Acute toxicity, rat = conditions: in vivo, male
Source text: as §1

[2] = Japanese Patent No. 585,252 and U.S. Pat. No. 3,546,073; cited from earlier work
blood platelet = assay: Aggregation inhibition activity of blood platelet (ADP-induced, platelet rich plasma of orally dosed rats); type: in vivo, Wister-Imamich strain male rats; conditions: rat, 20 mg/kg oral, 6 hours; adenosine-5'-diphosphate 10^-5 M in platelet rich plasma
Protocol: In this Example Wister-Imamich strain male rats weighing 230 ± 30 g which had been bred with the use of a commercial chow, CLEA CE-2 were used.
The rats were divided into groups of five members each, and orally administered with a different ascochlorin derivative as a suspension in 2% gum arabic aqueous solution in a dose of 20 mg/kg.body weight. Six hours after the administration, the blood of each rat was sampled from the heart and after the addition of citric acid, the blood sample was centrifuged at 1,500 r.p.m. for 10 minutes to obtain platelet rich plasma. The anti-aggregation effect when the concentration of adenosine-5'-diphosphatein the platelet rich plasma is ultimately 10^^-5 M is shown in Table II.
As positive controls, ascochlorin, ethyl-α-(p-chlorophenoxy) isobutylate and acetyl salicyclic acid were used. The aggregation inhibition ratio was evaluated in percent by comparing the increase of transmission rate caused by the addition of adenosin-5'-diphosphate to platelet rich plasma of the control group (no medication) with that caused on the groups administered with an ascochlorin derivative which is calculated for 100.

[3] = ascochlorin, background statement; cited from earlier work
[4] = especially noticeable when continuously administered; cited from earlier work
[5] = Toxicity by continuous administration for 10 days (body weight); type: in vivo, Wister-Imamichi strain male rats; conditions: rat, 10 mg/head oral once a day
Protocol: Wister-Imamichi strain male rats weighing 230 ± 30 g were divided into four groups of 10 members each, 3 groups of which were orally administered with 4-O-methylascochlorin in a dose of 10 mg/head, 4-O-methylascochlorin in 20 mg/head and ascochlorin in 10 mg/head, respectively, as a suspension in 2% gum arabic aqueous solution once a day for 10 days. The remaining group was administered with 2% gum arabic aqueous solution, the dose and way of administration being identical to those disclosed above. The increase in body weight of the rats of each group was observed every day during the administration. The results are shown in the graph of FIG. 1.

Serum Lipid = assay: Hypolipidemic activity: change in level of serum lipid, 30 days, high-fat feed; type: in vivo, Wister strain rats; conditions: rat
[6] = 10.0 mg/kg oral, average ± standard error

SMILES: CC(/C=C/[C@@]1(C)[C@H](C)CCC(=O)[C@@H]1C)=C\Cc1c(O)c(Cl)c(C)c(C=O)c1O [ascochlorin, reference compound]
- increase in body weight ([1]; 50 mg/kg): little or no increase in body weight; also recorded: lost weight
- rats died during the test period ([1]; group of 10): three
- Cholesterol in serum (Cholesterol in serum): 101.3 mg/dL
- Cholesterol in Liver, increasing or reducing ratio based on the control (Lipid in liver and aorta): +6.5
- Cholesterol in Tunica intima of aorta abdominalis, increasing or reducing ratio based on the control (Lipid in liver and aorta): -4.0
- Phospholipid in Liver, increasing or reducing ratio based on the control (Lipid in liver and aorta): -1.0
- Triglyceride in Liver, increasing or reducing ratio based on the control (Lipid in liver and aorta): -7.3
- Cholesterol in Liver (Lipid in liver and aorta; average ± standard error): 36.2 ± 3.5 mg/g
- Phospholipid in Liver (Lipid in liver and aorta; average ± standard error): 69.5 ± 4.2 mg/g
- Triglyceride in Liver (Lipid in liver and aorta; average ± standard error): 20.2 ± 2.5 mg/g
- LD50 (Acute toxicity, mouse; ip, female): 68 mg/kg
- LD50 (Acute toxicity, mouse; ip, male): 102 mg/kg
- LD50 (Acute toxicity, mouse; po, female): > 5000 mg/kg
- LD50 (Acute toxicity, mouse; po, male): > 5000 mg/kg
- LD50 (Acute toxicity, rat; ip): 258 mg/kg
- LD50 (Acute toxicity, rat; oral): > 7000 mg/kg
- known activities [2]: anti-viral, anti-tumor, anti-bacterial and sedative activities and, further, cholesterol-lowering activity
- Aggregation Inhibition Ratio (blood platelet): 66.8%
- hypolipidemic activity [3]: inadequate in its hypolipidemic activity
- toxicity [4]: strong in toxicity
- increase in body weight [5]: increased only slightly in body weight
- Serum Cholesterol, increasing or reducing ratio based on the control (Serum Lipid; 10.0 mg/kg oral): -8.8
- Serum Free fatty acid, increasing or reducing ratio based on the control (Serum Lipid; 10.0 mg/kg oral): -4.0
- Serum Phospholipid, increasing or reducing ratio based on the control (Serum Lipid; 10.0 mg/kg oral): -4.5
- Serum Triglyceride, increasing or reducing ratio based on the control (Serum Lipid; 10.0 mg/kg oral): -10.0
- Serum β-Lipoprotein, increasing or reducing ratio based on the control (Serum Lipid; 10.0 mg/kg oral): -5.6
- Serum Cholesterol (Serum Lipid; [6]): 97.4 ± 4.8 mg/dL
- Serum Free fatty acid (Serum Lipid; [6]): 48.3±4.7 μ eq./dl
- Serum Phospholipid (Serum Lipid; [6]): 130.1 ± 8.4 mg/dL
- Serum Triglyceride (Serum Lipid; [6]): 72.0 ± 13.2 mg/dL
- Serum β-Lipoprotein (Serum Lipid; [6]): 720 ± 114 mg/dL
- lowering of lipids in serum, liver and aorta (such effects) (Serum Lipid; oral, groups of Tables IV and V): such effects were not observed
